≈ marks a conversion by molar mass, not a printed value. Like-named read-outs stand apart in the source and are kept apart here.
What was measured:
[1] = system: intracellular S. flexneri 5a M90T in TC7 cells; assay: microbe, parasite or virus in culture; format: cell-based, Shigella flexneri; settings: for IC50: Shigella flexneri, TC7, 14 h; for MIC:IC50 ratio: S. flexneri MIC in TSB versus intracellular IC50
[2] = system: P. aeruginosa DSM1117; assay: MIC, standard microdilution assay, growing P. aeruginosa; format: cell-based, Pseudomonas aeruginosa; settings: P. aeruginosa; for MIC: Pseudomonas aeruginosa, DSM1117
Outline: (§1)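 Each strain was exposed to serially diluted compound in broth, in triplicate. The media were TSB for Shigella; CA-MHB at pH 7.4 (HEPES 40 mM) for S. aureus, P. aeruginosa and UPEC; and, for UPEC only, low-pH LPM (pH 5.5, 30 mM MES).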

[3] = system: non-growing P. aeruginosa DSM1117; assay: Dilution-regrowth assay (OD600, start-growth-time) on stationary-phase P. aeruginosa; format: cell-based, Pseudomonas aeruginosa; settings: P. aeruginosa; for EC50: Pseudomonas aeruginosa, DSM1117, regrowth delay of non-growing bacteria, 1:4 CA-MHB pH 7.4, 24 h treatment, OD600 8 h after dilution, read-out: EC50; for Regrowth, OD600 at 6h or 8h after dilution into drug-free medium: average
Outline: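 Stationary-phase cultures grown 24 h at 37 °C, 200 rpm, in 1:4 CA-MHB with 40 mM HEPES (pH 7.4), treated 24 h; preliminary compounds at 20 μM, 4 replicates. Regrowth OD600 read every 20 min at 37 °C; start-growth-time is when OD600 exceeds 0.12.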

[4] = system: E. coli CFT073 (UPEC); assay: MIC, standard microdilution assay, growing UPEC; format: cell-based, Escherichia coli; settings: E. coli; for MIC: Escherichia coli
Outline: as §1

[5] = system: S. flexneri 5a M90T; assay: MIC in tryptic soy broth, S. flexneri; format: cell-based, Shigella flexneri; settings: Shigella flexneri, 5AM90T, read-out: MIC (μM) TSB
Outline: as §1

[6] = TC7 cells infected with GFP-expressing S. flexneri, 14 h treatment
[7] = CA-MHB pH 7.4, read-out: MIC (μM) CA-MHB
[8] = pH 7.4, CA-MHB, read-out: MIC (μM) CA-MHB
[9] = 1:4 diluted CA-MHB pH 7.4, read-out: MIC (μM) 1:4 CA-MHB
[10] = pH 7.4, 1:4 diluted CA-MHB, read-out: MIC (μM) 1:4 CA-MHB

| SMILES | IC50 [1] | Fluorescence intensity (RFU), Mean, 2 x MIC [1, 6] | Fluorescence intensity (RFU), Mean, 4 x MIC [1, 6] | Fluorescence intensity (RFU), Mean, 8 x MIC [1, 6] | Fluorescence intensity (RFU), Mean, 16 x MIC [1, 6] | Fluorescence intensity (RFU), Mean, 32 x MIC [1, 6] | Fluorescence intensity (RFU), Mean, MIC [1, 6] | MIC [2, 7] | EC50 [3] | MIC ([4]; LPM pH 5.5, read-out: MIC) | MIC [4, 8] | MIC [5] | Fluorescence intensity (RFU), Mean, 0.25 x MIC [1, 6] | Fluorescence intensity (RFU), Mean, 0.5 x MIC [1, 6] | MIC [2, 9] | further results |
| --- | --- | --- | --- | --- | --- | --- | --- | --- | --- | --- | --- | --- | --- | --- | --- | --- |
| NC1CCN(c2nc3c(cc2F)c(=O)c(C(=O)O)cn3-c2ccc(F)cc2F)C1 (centres unmarked) [Tosufloxacin] | 25 nM | 4963.31 RFU | 3475.06 RFU | 3341.83 RFU | 2905.56 RFU | 2463.67 RFU | 6769 RFU | 1 µM (≈ 0.404 µg/mL) | 237 nM | 0.125 µM (≈ 0.0505 µg/mL) | 0.05 µM (≈ 0.0202 µg/mL) | 0.0156 µM (≈ 0.00632 µg/mL) | – | – | – | – |
| CN1C[C@@H]2C[C@H]1CN2c1cc2c(cc1F)c(=O)c(C(=O)O)cn2C1CC1 [Danofloxacin] | 52 nM | 3750.58 RFU | 3092.69 RFU | 2319.78 RFU | 1798.5 RFU | 1629.06 RFU | 4339.36 RFU | 4 µM (≈ 1.43 µg/mL) | 604 nM | – | 0.125 µM (≈ 0.0447 µg/mL) | 0.0625 µM (≈ 0.0223 µg/mL) | 9638.21 RFU | 8906.42 RFU | 4 µM (≈ 1.43 µg/mL) | – |
| CC[C@H]1OC(=O)C[C@@H](O)[C@H](C)[C@@H](O[C@@H]2O[C@H](C)C[C@H](N(C)C)[C@H]2O)[C@@H](CC=O)C[C@@H](C)C(=O)/C=C/[C@]2(C)O[C@H]2[C@@H]1C [Rosamicin] | 23600 nM | 3601.92 RFU | 1830.75 RFU | – | – | – | 6316.33 RFU | > 100 µM | 2300 nM | – | 25 µM (≈ 14.5 µg/mL) | 16 µM (≈ 9.31 µg/mL) | 9383.2 RFU | 8207.86 RFU | 100 µM (≈ 58.2 µg/mL) | MIC [4, 10]: 6.25 µM (≈ 3.64 µg/mL) |
| Cc1oc(=O)oc1CN1CCN(c2cc3c(cc2F)c(=O)c(C(=O)O)c2n3C(C)S2)CC1 (centres unmarked) [Prulifloxacin] | 147 nM | 8759.64 RFU | 6976.67 RFU | 4116.28 RFU | 3279.44 RFU | 2886.92 RFU | 8494.31 RFU | 1 µM (≈ 0.461 µg/mL) | 97 nM | 0.125 µM (≈ 0.0577 µg/mL) | 0.025 µM (≈ 0.0115 µg/mL) | 0.0312 µM (≈ 0.0144 µg/mL) | – | – | 1 µM (≈ 0.461 µg/mL) | MIC:IC50 ratio [1]: below 0.5; Regrowth, OD600 at 6h or 8h after dilution into drug-free medium ([3]; concentration 2.5): 0.094; Regrowth, OD600 at 6h or 8h after dilution into drug-free medium ([3]; concentration 10): 0.095 |
| CC[C@H]1OC(=O)[C@@](C)(F)C(=O)[C@H](C)[C@@H](O[C@@H]2O[C@H](C)C[C@H](N(C)C)[C@H]2O)[C@](C)(OC)C[C@@H](C)C(=O)[C@H](C)[C@H]2N(CCCCn3cc(-c4cccc(N)c4)nn3)C(=O)O[C@]12C [Solithromycin] | 1680 nM | 1563.03 RFU | 1560.69 RFU | 1548.25 RFU | 1546 RFU | 1533.19 RFU | 1837.61 RFU | 80 µM (≈ 67.6 µg/mL) | 158 nM | – | 8 µM (≈ 6.76 µg/mL) | 8 µM (≈ 6.76 µg/mL) | 4637.62 RFU | 2156.75 RFU | 80 µM (≈ 67.6 µg/mL) | MIC:IC50 ratio [1]: > 2; Fluorescence intensity (RFU), Mean, 0.0625 x MIC ([1]; TC7 cells infected with GFP-expressing S. flexneri, 14 h treatment, 0.0625 x MIC): 9882.71 RFU; Fluorescence intensity (RFU), Mean, 0.125 x MIC [1, 6]: 9214.08 RFU; MIC (μM) CA-MHB +PAβN ([2]; CA-MHB with 10 μg/ml PaβN): >80 µM; MIC (μM) CA-MHB +PAβN ([4]; pH 7.4, CA-MHB with 10 μg/ml efflux pump inhibitor PaβN): 4 µM (≈ 3.38 µg/mL); MIC [4, 10]: 10 µM (≈ 8.45 µg/mL) |
| COc1c(N2C[C@@H]3CCCN[C@@H]3C2)c(F)cc2c(=O)c(C(=O)O)cn(C3CC3)c12 [Moxifloxacin] | 35 nM | 3672.56 RFU | 2897.78 RFU | 2156.25 RFU | 1789.81 RFU | 1608.56 RFU | 3564.03 RFU | 8 µM (≈ 3.21 µg/mL) | 264 nM | – | 0.125 µM (≈ 0.0502 µg/mL) | 0.0625 µM (≈ 0.0251 µg/mL) | 7400.12 RFU | 5542.67 RFU | – | Regrowth, OD600 at 6h or 8h after dilution into drug-free medium ([3]; concentration 0.1): 0.549; Regrowth, OD600 at 6h or 8h after dilution into drug-free medium ([3]; concentration 0.5): 0.215; Regrowth, OD600 at 6h or 8h after dilution into drug-free medium ([3]; concentration 2.5): 0.094; Regrowth, OD600 at 6h or 8h after dilution into drug-free medium ([3]; concentration 10): 0.093 |
| C[C@H]1NCc2cc(-c3ccc4c(=O)c(C(=O)O)cn(C5CC5)c4c3OC(F)F)ccc21 [Garenoxacin] | 31 nM | 3944.5 RFU | 3336.42 RFU | 2806.31 RFU | 2331.56 RFU | 1840.28 RFU | 3888.86 RFU | 4 µM (≈ 1.71 µg/mL) | 978 nM | 0.125 µM (≈ 0.0533 µg/mL) | 0.125 µM (≈ 0.0533 µg/mL) | 0.0625 µM (≈ 0.0267 µg/mL) | 6643.04 RFU | 5273 RFU | 4 µM (≈ 1.71 µg/mL) | – |
| CCN1CCN(c2cc3c(cc2F)c(=O)c(C(=O)O)cn3C2CC2)CC1 [Enrofloxacin] | 36 nM | 2710.72 RFU | 1953.94 RFU | 1617.72 RFU | 1488.39 RFU | 1501.89 RFU | 3054.19 RFU | 4 µM (≈ 1.44 µg/mL) | 690 nM | 0.125 µM (≈ 0.0449 µg/mL) | 0.1 µM (≈ 0.0359 µg/mL) | 0.0625 µM (≈ 0.0225 µg/mL) | 7346.62 RFU | 6043.88 RFU | 4 µM (≈ 1.44 µg/mL) | Fluorescence intensity (RFU), Mean, 0.125 x MIC [1, 6]: 8510.46 RFU |
